According to ChEMBL document CHEMBL5579853, “Recent progress in the development of hypoxia-inducible factor 2α (HIF-2α) modulators: Inhibitors, agonists, and degraders (2009-2024)” (Eur J Med Chem, 2024):

biological target: T1, Vascular endothelial growth factor A, long form (Homo sapiens, UniProt P15692); experiment: Inhibition of VEGF (unknown origin) by FRET based analysis; details: not given
T1 sequence (P15692 whole entry): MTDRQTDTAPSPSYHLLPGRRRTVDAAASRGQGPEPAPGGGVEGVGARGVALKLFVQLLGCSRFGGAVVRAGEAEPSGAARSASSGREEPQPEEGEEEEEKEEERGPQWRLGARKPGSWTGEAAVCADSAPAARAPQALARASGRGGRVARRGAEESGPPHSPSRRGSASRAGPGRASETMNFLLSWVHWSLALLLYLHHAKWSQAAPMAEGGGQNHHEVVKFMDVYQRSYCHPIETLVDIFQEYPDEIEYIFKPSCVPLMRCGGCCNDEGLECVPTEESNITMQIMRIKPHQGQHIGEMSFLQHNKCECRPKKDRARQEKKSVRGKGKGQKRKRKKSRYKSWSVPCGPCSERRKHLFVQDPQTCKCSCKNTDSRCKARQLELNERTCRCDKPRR

IC50 [nM] | Compound
50 | FC(F)OC1=CC2=N[C@]3(C[C@H]4C[C@H]4c4c3ccnc4Cl)CN2C=C1C(F)(F)F
15 | Fc1c(C(F)(F)F)ncc2c1SC[C@H](F)[C@@]21CN2C=C(C(F)(F)F)C(OC(F)F)=CC2=N1

biological target: Endothelial PAS domain-containing protein 1 (Homo sapiens, UniProt Q99814); experiment: Inhibition of HIF-2alpha (unknown origin); details: not given
Sequence (Q99814 whole entry, the tested form may be a part): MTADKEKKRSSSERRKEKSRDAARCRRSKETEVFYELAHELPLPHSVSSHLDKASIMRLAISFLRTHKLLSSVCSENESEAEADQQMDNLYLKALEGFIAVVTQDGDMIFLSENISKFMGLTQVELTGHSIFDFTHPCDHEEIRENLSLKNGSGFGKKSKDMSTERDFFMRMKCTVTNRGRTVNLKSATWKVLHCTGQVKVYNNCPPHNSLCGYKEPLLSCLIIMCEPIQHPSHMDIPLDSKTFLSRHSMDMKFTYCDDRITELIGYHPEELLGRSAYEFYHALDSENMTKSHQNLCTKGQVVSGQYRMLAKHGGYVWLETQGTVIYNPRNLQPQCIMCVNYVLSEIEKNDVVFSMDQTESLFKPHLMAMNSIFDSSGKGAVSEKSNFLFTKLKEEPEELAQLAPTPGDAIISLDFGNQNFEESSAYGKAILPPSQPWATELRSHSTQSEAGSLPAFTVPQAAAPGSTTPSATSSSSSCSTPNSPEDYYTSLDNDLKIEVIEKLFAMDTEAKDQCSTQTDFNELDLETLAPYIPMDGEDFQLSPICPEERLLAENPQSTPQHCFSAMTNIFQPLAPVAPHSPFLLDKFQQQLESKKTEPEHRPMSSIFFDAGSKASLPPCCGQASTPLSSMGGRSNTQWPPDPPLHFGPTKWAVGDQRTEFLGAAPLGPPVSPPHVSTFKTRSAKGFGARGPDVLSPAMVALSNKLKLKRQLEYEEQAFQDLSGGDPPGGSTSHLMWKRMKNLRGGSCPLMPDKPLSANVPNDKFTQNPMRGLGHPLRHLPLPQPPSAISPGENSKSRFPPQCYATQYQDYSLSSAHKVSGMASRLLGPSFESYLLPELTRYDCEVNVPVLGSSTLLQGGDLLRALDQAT

EC50 [nM] | Compound
2200 | CS(=O)(=O)c1sc(N2CCCc3ccccc32)c2c1[C@H](O)[C@H](F)C2
< 100 | CS(=O)(=O)c1ccc([C@H]2CCCc3cc(F)cc(C#N)c32)c2c1[C@H](O)[C@H](F)[C@@H]2F
29 | CP(C)(=O)c1ccc(Oc2cc(F)cc(F)c2)c2c1C(O)C(F)(F)C2 (stereo not drawn)
< 50 | N#Cc1cc(F)cc(Oc2ccc3c4c2C(F)CC4(O)C(F)(F)S3(=O)=O)c1 (stereo not drawn)
11 | O[C@@H]1CCc2c(Oc3cc(F)cc(F)c3)ncnc21
< 100 | N#Cc1cc(F)cc(Oc2ccc(S(=O)(=O)C(F)(F)F)c3[nH]ncc23)c1

The next lines start with the compound.

Compound | EC50 [nM]
CS(=O)(=O)c1ccc(N2CCCc3ccccc32)c2c1[C@H](O)[C@H](F)C2 | 340
O[C@H]1c2c(C(F)(F)F)ncc(OC3CC(F)(F)C3)c2[C@@H](F)[C@H]1F | 21
OC1c2c(C(F)(F)F)cn(-c3cncc(F)c3)c2CC(F)C1F (stereo not drawn) | 500

tested on: 786-0; experiment: cells; details: Homo sapiens, 786-0, 72 h
Description: Antiproliferative activity against human 786-0 cells assessed as inhibition of cell growth incubated for 72 hrs by celltiter-glo assay

IC50 [nM] | Compound
< 5000 | CNC(=O)c1ccn2c(C(F)F)cc(-c3ccc(C)c(C)c3)nc12
5000 | CC[C@@H](Nc1cccc(F)c1)C(=O)N/N=C/c1cccc(C)c1O
